Molecules are shown by their SMILES. Some results are limits rather than exact numbers.

The test deals with T1, HPK1 (Homo sapiens, UniProt Q92918).
T1 construct: purchased Invitrogen
T1 sequence (Q92918 whole entry): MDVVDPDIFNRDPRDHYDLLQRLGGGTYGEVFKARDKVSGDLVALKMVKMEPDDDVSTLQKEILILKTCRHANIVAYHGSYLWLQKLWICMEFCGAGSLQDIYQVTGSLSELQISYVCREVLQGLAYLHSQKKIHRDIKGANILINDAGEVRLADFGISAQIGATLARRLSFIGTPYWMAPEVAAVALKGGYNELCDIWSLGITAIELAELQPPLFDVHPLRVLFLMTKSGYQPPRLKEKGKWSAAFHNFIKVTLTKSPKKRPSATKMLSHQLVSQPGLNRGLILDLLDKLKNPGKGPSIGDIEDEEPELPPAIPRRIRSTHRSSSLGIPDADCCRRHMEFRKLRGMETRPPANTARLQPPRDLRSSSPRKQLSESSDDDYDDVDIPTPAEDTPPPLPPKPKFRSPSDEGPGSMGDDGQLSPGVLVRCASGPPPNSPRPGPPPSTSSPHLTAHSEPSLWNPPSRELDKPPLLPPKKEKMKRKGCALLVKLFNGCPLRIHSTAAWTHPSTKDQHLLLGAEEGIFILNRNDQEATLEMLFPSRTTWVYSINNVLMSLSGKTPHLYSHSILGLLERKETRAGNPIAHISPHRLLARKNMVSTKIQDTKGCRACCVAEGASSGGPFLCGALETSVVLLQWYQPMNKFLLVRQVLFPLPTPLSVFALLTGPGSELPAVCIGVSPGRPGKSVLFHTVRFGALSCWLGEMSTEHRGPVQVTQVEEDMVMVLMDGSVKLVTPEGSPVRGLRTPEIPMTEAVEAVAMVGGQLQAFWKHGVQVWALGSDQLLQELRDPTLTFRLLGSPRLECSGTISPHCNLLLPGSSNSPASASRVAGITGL
Description: HPK1 biochemical enzyme assay (microfluidic mobility shift assay). The note with it: 1000 uM (1 mM) ATP; Caliper mobility shift; 1.5 nM HPK1; 30 min preincubation; read-out: HPK1 1000UMATP caliper IC50. In a few lines:
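Microfluidic mobility-shift readout with 1.5 nM HPK1 in pH 7.4 buffer; compounds (ten-point curves, top 3 μM final) preincubated 30 min with enzyme/substrate. Reaction started with 1 mM ATP and 1 μM substrate plus 5 mM MgCl2, run 60 min at RT. IC50 values binned into activity classes.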
As for `COc1cc(-c2cc(Nc3ccc(N4CCC(O)CC4)cn3)c3c(=O)[nH]ccc3n2)c(F)cc1CN(C)C` [I-215, 2-(4-((Dimethylamino)methyl)-2-fluoro-5-methoxyphenyl)-4-((5-(4-hydroxypiperidin-1-yl)pyridin-2-yl)amino)-1,6-naphthyridin-5(6H)-one], the IC50 lay within 100 to 1000 nM. For the molecule `O=C(c1ccc(-c2cc(Nc3ccc(N4CCNCC4)cn3)c3c(=O)[nH]ccc3n2)c(F)c1)N1CC2CCC1CC2` [I-264, 2-[4-(3-azabicyclo [2.2.2]octane-3-carbonyl)-2-fluoro-phenyl]-4-[(5-piperazin-1-yl-2-pyridyl)amino]-6H-1,6-naphthyridin-5-one], the IC50 was ≤ 100 nM. The value for `O=c1[nH]ccc2nc(-c3cccc(CN4CCCCC4)c3F)cc(Nc3ccc(N4CCC(O)CC4)cn3)c12` [I-183, 2-[2-fluoro-3-(1-piperidyl-methyl)phenyl]-4-[[5-(4-hydroxy-1-piperidyl)-2-pyridyl]amino]-6H-1,6-naphthyridin-5-one] was ≤ 100 nM; that for `O=c1[nH]ccc2nc(-c3cc(CN4CC5(CCCO5)C4)ccc3F)cc(Nc3ccc(N4CCC(O)CC4)cn3)c12` [I-255, 2-[2-fluoro-5-(5-oxa-2-azaspiro [3.4]octan-2-ylmethyl)phenyl]-4-[[5-(4-hydroxy-1-piperidyl)-2-pyridyl]amino]-6H-1,6-naphthyridin-5-one] was > 1000 nM; that for `O=c1[nH]ccc2nc(-c3cccc(CN4CCOCC4)c3F)cc(Nc3ccc(N4CCC(O)CC4)cn3)c12` [I-171, 2-[2-fluoro-3-(morpholino-methyl)phenyl]-4-[[5-(4-hydroxy-1-piperidyl)-2-pyridyl]amino]-6H-1,6-naphthyridin-5-one] was 100 to 1000 nM. Turning to `CC(C)(C#N)c1ccc(F)c(-c2cc(Nc3ccc(N4CCC(O)CC4)cn3)c3c(=O)[nH]ccc3n2)c1` [I-104, 2-[4-fluoro-3-[4-[[5-(4-hydroxy-1-piperidyl)-2-pyridyl]amino]-5-oxo-6H-1,6-naphthyridin-2-yl]phenyl]-2-methyl-propane-nitrile], the IC50 is > 1000 nM. For the molecule `CC1(C(=O)Nc2ccc(-c3cc(Nc4ccc(N5CCC(O)CC5)cn4)c4c(=O)[nH]ccc4n3)c(F)c2)CCC1` [I-211, N-[3-fluoro-4-[4-[[5-(4-hydroxy-1-piperidyl)-2-pyridyl]amino]-5-oxo-6H-1,6-naphthyridin-2-yl]phenyl]-1-methyl-cyclobutane-carboxamide], the half-maximal inhibitory concentration (IC50) was > 1000 nM. With `CC(O)(c1ccc(F)c(-c2cc(Nc3ccc(N4CCC(O)CC4)cn3)c3c(=O)[nH]ccc3n2)c1)C(F)(F)F` (single isomer, unassigned) [I-273, 2-(2-fluoro-5-(1,1,1-tifluoro-2-hydroxy-propan-2-yl)phenyl)-4-((5-(4-hydroxy-piperidin-1-yl)pyridin-2-yl)amino)-1,6-naphthyridin-5(6H)-one], the IC50 is ≤ 100 nM. `O=c1[nH]ccc2nc(N3CC[C@@H](O)C3)cc(Nc3ccc(N4CCC(O)CC4)cn3)c12` [I-87, 4-[[5-(4-hydroxy-1-piperidyl)-2-pyridyl]amino]-2-[(3R)-3-hydroxy-pyrrolidin-1-yl]-6H-1,6-naphthyridin-5-one]: the IC50 fell in the range of 100 to 1000 nM. As for `O=c1[nH]cnc2nc(-c3c(F)cccc3F)cc(Nc3ccc(N4CCC(O)CC4)cn3)c12` [I-11, 7-(2,6-difluorophenyl)-5-[[5-(4-hydroxy-1-piperidyl)-2-pyridyl]amino]-3H-pyrido[2,3-d]pyrimidin-4-one], the IC50 lay within 100 to 1000 nM. As for `O=C(c1ccc(-c2cc(Nc3ccc(N4CCC(O)CC4)cn3)c3c(=O)[nH]ccc3n2)c(F)c1)N1CC2CCC1C2` (stereo not drawn) [I-137, 2-[4-(3-azabicyclo [2.2.1]heptane-3-carbonyl) 2-fluoro-phenyl]-4-[[5-(4-hydroxy-1-piperidyl)-2-pyridyl]amino]-6H-1,6-naphthyridin-5-one], the IC50 was ≤ 100 nM. For the molecule `O=c1[nH]ccc2nccc(Nc3ccc(N4CCC(O)CC4)cn3)c12` [I-44, 4-[[5-(4-hydroxy-1-piperidyl)-2-pyridyl]amino]-6H-1,6-naphthyridin-5-one], the IC50 is ≤ 100 nM. As to `O=c1[nH]cc(Br)c2nc(-c3c(F)cccc3F)cc(Nc3ccc(N4CCC(O)CC4)cn3)c12` [I-5, 8-bromo-2-(2,6-difluorophenyl)-4-[[5-(4-hydroxy-1-piperidyl)-2-pyridyl]amino]-6H-1,6-naphthyridin-5-one], the IC50 lay in the range of 100 to 1000 nM.

Consider `Cc1c[nH]c(=O)c2c(Nc3ccc(N4CCC(O)CC4)cn3)cc(-c3ccc(NC(=O)C4CCCCC4)cc3F)nc12` [I-158, N-[3-fluoro-4-[4-[[5-(4-hydroxy-1-piperidyl)-2-pyridyl]amino]-8-methyl-5-oxo-6H-1,6-naphthyridin-2-yl]phenyl] cyclohexane carboxamide], for which the IC50 was ≤ 100 nM. On to `COc1cc(-c2cc(Nc3ccc(C4CC4)cn3)c3c(=O)[nH]ccc3n2)c(F)cc1C(=O)N1CCCCC1` [I-198, 4-[(5-cyclopropyl-2-pyridyl)amino]-2-[2-fluoro-5-methoxy-4-(piperidine-1-carbonyl)phenyl]-6H-1,6-naphthyridin-5-one], for which the 50% inhibitory concentration (IC50) lay in the range of 100 to 1000 nM.

For the molecule `COc1cc(-c2cc(Nc3ccc(N4CCCCC4)cn3)c3c(=O)[nH]ccc3n2)c(F)cc1C(=O)N1CCCCC1` [I-232, 2-[2-fluoro-5-methoxy-4-(piperidine-1-carbonyl)phenyl]-4-[[5-(1-piperidyl)-2-pyridyl]amino]-6H-1,6-naphthyridin-5-one], the half-inhibitory concentration (IC50) was ≤ 100 nM.

Consider `O=c1[nH]ccc2nc(-c3cc(CN4CCCCC4)ccc3F)cc(Nc3ccc(N4CCC(O)CC4)cn3)c12` [I-150, 2-[2-fluoro-5-(1-piperidyl-methyl)phenyl]-4-[[5-(4-hydroxy-1-piperidyl)-2-pyridyl]amino]-6H-1,6-naphthyridin-5-one], for which the IC50 fell in the range of 100 to 1000 nM. For the molecule `Cc1nc2cc(-c3cc(Nc4ccc(N5CCC(O)CC5)cn4)c4c(=O)[nH]ccc4n3)c(F)cc2o1` [I-182, 2-(6-fluoro-2-methyl-1,3-benzoxazol-5-yl)-4-[[5-(4-hydroxy-1-piperidyl)-2-pyridyl]amino]-6H-1,6-naphthyridin-5-one], the concentration for half-maximal inhibition (IC50) was > 1000 nM. For `COc1cc(-c2cc(Nc3ccc(N4CCNCC4)cn3)c3c(=O)[nH]ccc3n2)c(F)cc1C(=O)N(C)C` [I-176, 5-fluoro-2-methoxy-N,N-dimethyl-4-[5-oxo-4-[(5-piperazin-1-yl-2-pyridyl)amino]-6H-1,6-naphthyridin-2-yl] benzamide], the IC50 was ≤ 100 nM.

Turning to `COc1ccc(F)c(-c2cc(Nc3ccc(N4CCC(O)CC4)cn3)c3c(=O)[nH]ccc3n2)c1` [I-42, 2-(2-fluoro-5-methoxyphenyl)-4-((5-(4-hydroxypiperidin-1-yl)pyridin-2-yl)amino)-1,6-naphthyridin-5(6H)-one], the IC50 lay within 100 to 1000 nM. The result for `CC(C)c1cc(Nc2ccc(S(=O)(=O)N3CCCCC3)cn2)c2c(=O)[nH]ccc2n1` [I-31, 2-isopropyl-4-[[5-(1-piperidyl-sulfonyl)-2-pyridyl]amino]-6H-1,6-naphthyridin-5-one] reads 100 to 1000 nM; that for `CC(C)Oc1cc(-c2cc(Nc3ccc(N4CCC(O)CC4)cn3)c3c(=O)[nH]ccc3n2)c(F)cc1C(=O)N1CCCCC1` [I-186, 2-[2-fluoro-5-isopropoxy-4-(piperidine-1-carbonyl)phenyl]-4-[[5-(4-hydroxy-1-piperidyl)-2-pyridyl]amino]-6H-1,6-naphthyridin-5-one], ≤ 100 nM. The value for `O=C(Nc1ccc(-c2cc(Nc3ccc(N4C[C@H]5CC[C@@H](C4)O5)cn3)c3c(=O)[nH]ccc3n2)c(F)c1)C1CCCCC1` [I-173, N-[3-fluoro-4-[4-[[5-[(1R,5S)-8-oxa-3-azabicyclo [3.2.1]octan-3-yl]-2-pyridyl]amino]-5-oxo-6H-1,6-naphthyridin-2-yl]phenyl]-cyclohexane-carboxamide] was 100 to 1000 nM.

`CC(C)c1ccc(F)c(-c2cc(Nc3ccc(N4CCC(O)CC4)cn3)c3c(=O)[nH]ccc3n2)c1` [I-48, 2-(2-fluoro-5-isopropyl-phenyl)-4-[[5-(4-hydroxy-1-piperidyl)-2-pyridyl]amino]-6H-1,6-naphthyridin-5-one]: the half-maximal inhibitory concentration (IC50) was 100 to 1000 nM. For the molecule `CNCc1ccc(-c2cc(Nc3ccc(N4CCC(O)CC4)cn3)c3c(=O)[nH]ccc3n2)c(F)c1` [I-218, 2-[2-fluoro-4-(methyl-amino-methyl)phenyl]-4-[[5-(4-hydroxy-1-piperidyl)-2-pyridyl]amino]-6H-naphthyridin-5-one], the IC50 was ≤ 100 nM.

Regarding `CC(C)c1cccc(-c2cc(Nc3ccc(N4CCC(O)CC4)cn3)c3c(=O)[nH]ccc3n2)c1` [I-99, 4-[[5-(4-hydroxy-1-piperidyl)-2-pyridyl]amino]-2-(3-isopropyl-phenyl)-6H-1,6-naphthyridin-5-one], the IC50 lay within 100 to 1000 nM. The value for `CN(C)C(=O)c1ccc(F)c(-c2cc(Nc3ccc(N4CCC(O)CC4)cn3)c3c(=O)[nH]ccc3n2)c1` [I-79, 4-fluoro-3-[4-[[5-(4-hydroxy-1-piperidyl)-2-pyridyl]amino]-5-oxo-6H-1,6-naphthyridin-2-yl]-N,N-dimethyl-benzamide] was 100 to 1000 nM; that for `CC1(c2ccc(F)c(-c3cc(Nc4ccc(N5CCC(O)CC5)cn4)c4c(=O)[nH]ccc4n3)c2)CC1` [I-102, 2-[2-fluoro-5-(1-methylcyclo-propyl)phenyl]-4-[[5-(4-hydroxy-1-piperidyl)-2-pyridyl]amino]-6H-1,6-naphthyridin-5-one] was ≤ 100 nM; that for `O=c1[nH]ccc2nc(-c3cc(C4CCC4)ccc3F)cc(Nc3ccc(N4CCC(O)CC4)cn3)c12` [I-97, 2-(5-cyclobutyl-2-fluoro-phenyl)-4-[[5-(4-hydroxy-1-piperidyl)-2-pyridyl]amino]-6H-naphthyridin-5-one] was 100 to 1000 nM. Take `CC(O)c1c[nH]c(=O)c2c(Nc3ccc(N4CCC(O)CC4)cn3)cc(-c3c(F)cccc3F)nc12` (stereo not drawn) [I-15, 2-(2,6-difluorophenyl)-8-(1-hydroxyethyl)-4-[[5-(4-hydroxy-1-piperidyl)-2-pyridyl]amino]-6H-1,6-naphthyridin-5-one]: the IC50 is 100 to 1000 nM.

Usually IC50 stands for the concentration that inhibits the measured activity by half.

Values taken from US12252488B2 (Nimbus Saturn, Inc., priority 2021, dated 2025).
